The test system of assay [1] is variant soybean EPSPS (gly 104 to ala, gly 147 to asp) from pMON9953. Description: Glyphosate tolerance of EPSP synthase extracted from bacteria. The class given is biochemical, Glycine max. The following applies: enzyme extracted from E. coli SR481 with pMON9953. An excerpt:
An E. coli expression vector for wild type soybean EPSPS was constructed by engineering an NcoI site at the predicted start of the mature soybean coding sequence by the method of Kunkel (1985). This sequence was then inserted into pMON9563, replacing the coding sequence for mature petunia EPSPS resulting in pMON9904.

For assay [2], the system named is MP4 cells. Description: Suspension culture of petunia cells in glyphosate medium. The class given is cell-based. The following applies: MS media containing 0.5 mM glyphosate (sodium salt); estimated; read-out: cells which survived, of the starting population. The protocol:
The starting cell line, designated as the MP4 line, was derived from a Mitchell diploid petunia (see e.g., Ausubel 1980). The MP4 cells were suspended in Murashige and Skoog (MS) culture media, (GIBCO, Grand Island, N.Y.) All transfers involved dispensing 10 ml of suspension cultures into 50 ml of fresh media. Cultivation periods until the next transfer ranged from 10 to 14 days, and were based on visual indications that the culture was approaching saturation.
Approximately 10 ml of saturated suspension culture (containing about 5×10^6 cells) were transferred into 50 ml of MS media containing 0.5 mM glyphosate. The sodium salt of glyphosate was used throughout the experiments described herein. The large majority of cells were unable to reproduce in the presence of the glyphosate. The cells which survived (estimated to be less than 1% of the starting population) were cultured in 0.5 mM glyphosate and transferred to fresh media containing glyphosate every 10 to 14 days.

Assay [3] concerns E. coli strain JM101. Description: Growth on minimal medium plates with increasing glyphosate. The class given is cell-based. The settings on record: Escherichia coli, read-out: glyphosate concentration that inhibits endogenous EPSP synthase activity and growth on minimal media. An excerpt:
A multi-step screening procedure was used to identify glyphosate resistant variants of petunia EPSPS.

Assay [4] deals with T1, variant petunia EPSP synthase with glycine (101) to alanine and glycine (144) to asparagine substitutions (Petunia hybrida, UniProt P11043, G173A/G216N).
T1 construct: GGT codon for glycine (144) in the mature petunia EPSP synthase
Description: EPSP synthase kinetic constants (Ki glyphosate, Km PEP). The class given is biochemical. As to the method: Kinetic constants (appKm PEP and appKi glyphosate) were determined for EPSP synthase as described below. Substrate kinetic parameters were determined at pH 7.0 in 50 mM HEPES (N-[2-hydroxyethyl]piperazine-N'-[2-ethanesulfonic acid]) buffer in the presence of 2 mM S3P and varying amounts of ^14 C-PEP (10 μM-400 μM), for 2.0 minutes at 25° C. Reactions were quenched with 100 mM Na Acetate in ethanol, pH 4.5, centrifuged and analyzed for product EPSP formation by HPLC with flow radioactivity detection. HPLC conditions were 0.35 MKPi, pH 6.5, on a Synchropak AX100 column at 1.0 ml/min.

Assay [5] has as its system petunia leaf disks transformed with pMON546 (CaMV35S/EPSP synthase gene). Description: Leaf disk callus growth on glyphosate media. The class given is cell-based. The following applies: within 10 days. The protocol: (§1) Leaf disks with diameters of 6 mm (1/4 inch) were taken from surface-sterilized petunia leaves. They were cultivated on MS104 agar medium for 2 days to promote partial cell wall formation at the wound surfaces. They were then submerged in a culture of A. tumefaciens cells containing both pMON546 and GV3111-SE which had been grown overnight in Luria broth at 28° C., and shaken gently. The cells were removed from the bacterial suspension, blotted dry, and incubated upside down on filter paper placed over "nurse" cultures of tobacco cells, as described by Horsch (1980). After 2 or 3 days, the disks were transferred to petri dishes containing MS media with 500 μg/ml carbenicillin and 0. 0.1, 0.25, or 0.5 mM glyphosate (sodium salt), with no nurse cultures.
(§2) Control tissue was created using A. tumefaciens cells containing the helper plasmid pGV3111-SE and a different plant transformation vector, pMON505, which contained a T-DNA region with a NOS/NPTII/NOS kanamycin resistance gene and a NOS selectable marker gene identical to pMON546, but without the CaMV35S/EPSP synthase gene.

The subject of assay [6] is control petunia leaf disks (pMON505). Nature of the assay: Leaf disk callus growth on glyphosate media. The class given is cell-based. The settings on record: within 10 days. As to the method: as §1, §2
Assay [7] has as its system E. coli SR481 (aroA-) carrying pMON8152. Description: Growth on minimal medium containing glyphosate. The class given is cell-based. The protocol:
The heterologous expression system was tested with a known variant to see if glyphosate resistant variants of petunia EPSPS could be selected. […] That was achieved by replacing the 660 bp EcoRI-HindIII region from both vectors with the 660 bp EcoRI-HindIII region from pMON9566 which contained the glycine (101) to alanine mutation.

Assay [8] deals with control petunia plants (wildtype or control vector pMON505). Description: Plant response to glyphosate spraying. The following applies: 0.8 #/acre acid equivalent, isopropylamine salt, sprayed. The class given is in vivo. The protocol:
(§3) Four individual representative transgenic seedlings were selected, grown and tested in the testing procedure described below, along with four individual non-transformed (wild-type) petunia seedlings.
(§4) The plants were grown in a growth medium in a growth chamber at 26° C. with 12 hours of light per day. The plants were fertilized weekly with a soluble fertilizer and watered as needed. The plants were sprayed at a uniform and reproducible delivery rate of herbicide by use of an automated track sprayer. The glyphosate solution used was measured as pounds of glyphosate acid equivalents per acre, mixed as the glyphosate isopropylamine salt, with an ionic surfactant.
(§5) Four individual wild-type (non-transformed) petunia plants were selected for use as control plants. Four individual transformed plants containing the pMON546 vector were selected by kanamycin resistance as described by Horsch, et al. (1985).
(§6) The control plants and the transformed plants were sprayed with the isopropylamine salt of glyphosate at the application level listed in Table 2 below; the experimental results obtained are also summarized in Table 2.

The subject of assay [9] is transformed petunia plants containing pMON546 (Chimeric EPSP). Description: Plant response to glyphosate spraying. The following applies: 0.8 #/acre acid equivalent, isopropylamine salt, sprayed. The class given is in vivo. The protocol: as §3, §4, §5, §6
In assay [10] the target is petunia EPSP synthase with alanine for the first glycine of the conserved region (Petunia hybrida, UniProt P11043, G170A). Description: Glyphosate sensitivity of EPSP synthase variant. The following applies: relative to wild type. The class given is biochemical.
Setting [11] is: 0.1 mM glyphosate (sodium salt).
[12] abbreviates: 0.25 mM glyphosate (sodium salt).
Where [13] appears, read: 0.5 mM glyphosate (sodium salt).

≈ marks a conversion by molar mass, not a printed value. Entries after “also recorded” stand apart in the source; their conditions may differ. A value given as a limit tells only on which side of the number the result lay.

T1 sequence (P11043 73-516 G173A/G216N): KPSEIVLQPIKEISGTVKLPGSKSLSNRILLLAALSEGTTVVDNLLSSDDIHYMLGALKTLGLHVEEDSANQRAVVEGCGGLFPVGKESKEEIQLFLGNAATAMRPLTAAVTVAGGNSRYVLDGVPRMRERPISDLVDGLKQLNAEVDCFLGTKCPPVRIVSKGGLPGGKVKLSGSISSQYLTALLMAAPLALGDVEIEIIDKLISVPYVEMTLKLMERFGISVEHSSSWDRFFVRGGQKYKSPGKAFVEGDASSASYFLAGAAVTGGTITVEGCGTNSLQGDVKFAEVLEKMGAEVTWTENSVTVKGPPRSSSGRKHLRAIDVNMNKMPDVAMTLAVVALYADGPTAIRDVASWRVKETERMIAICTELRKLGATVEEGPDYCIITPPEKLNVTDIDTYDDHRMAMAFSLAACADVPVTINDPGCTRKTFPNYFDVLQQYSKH
Chain of petunia EPSP synthase with alanine for the first glycine of the conserved region (P11043 73-516 G170A): as the sequence (P11043 73-516 G173A/G216N) above, with G98A, A101G, N144G counted along it

Regarding `O=C(O)CNCP(=O)(O)O` [glyphosate, N-phosphonomethylglycine], the “glyphosate tolerance of extracted EPSP synthase” value in [1] was “glyphosate tolerant”. Moreover, the viability at 500 µM in [2] was below 1%. For the same compound, in assay [3], the MIC amounted to 2000 µM (≈ 338 µg/mL). The compound further displayed a Ki for glyphosate in assay [4] of 960 µM. The same compound returned a Ki/Km in assay [4] (Ki glyphosate / Km PEP) of 10.5. Further, the callus growth in [5] (setting [11]) was “little detectable difference between the control disks and the transformed tissue”; in assay [5] (setting [12]) it was “substantial growth of transformed tissue”; in assay [5] (setting [13]), “a significant number of calli grew”; in [6] (setting [11]), “little detectable difference between the control disks and the transformed tissue”; in assay [6] (setting [12]) it was “very little growth of callus”; in [6] (setting [13]), “no callus growth”. In addition, the “glyphosate concentration up to which growth on minimal medium is supported” value in assay [7] is “up to 50 mM”. Further, the “Visual Appearance” value is “completely dead; also recorded: killed” in [8]; “growing well; also recorded: healthy and viable” in assay [9]. For the same compound, the “change in glyphosate sensitivity” value in [10] was “no attendant changes in glyphosate sensitivity”.
